Results from US4957735A, “Target-sensitive immunoliposomes- preparation and characterization” (The University of Tennessee Research Corporation, priority 1987, dated 1990).
Converted amounts (≈) assume the structure as drawn. Where two headings read alike, the source gives them in different places. Each block holds one compound with its values, some of them ahead of it.

What was measured:
[1] = tested on: L929 cells; assay: L929 cell toxicity assay ([3H]dT incorporation); settings: for CD50 (drug concentration required to inhibit 50% of [3H]dT incorporation): 42 hr.
Procedure: (§1) As a measure of cytotoxicity, the drug concentration required to inhibit 50% of [^3 H]dT incorporation 42 hr. later (CD50) was determined.
(§2) PI. […] At 42 hr. PI, the supernatant of the L929 cells was collected and titered for the virus yield. The toxicity of the drug on the general cell population was monitored by [^3 H]dT incorporation since both AraC and ACV inhibit the DNA synthesis.
(§3) L929 cells at 75-80% confluency in 96-well Coster plates were infected with 0.1 multiplicity of infection (MOI) in McCoy's medium with 2% CS for 1 hr. Then the infection medium was removed and replaced with McCoy's medium containing 10% CS. For the target sensitivity assay (see below), L929 cells were grown in 35-mm six-well Linbro plates and a similar procedure was used to infect the L929 cell with various concentration of HSV, ranging from 0-10 MOI.
(§4) HSV-infected L929 cells in 7-mm 96-well plates were used in these experiments and each experiment was performed in quadruplicate. At 3 hr. post infection (PI), the growth medium of infected or uninfected cell was removed, and replaced with 180 micro-l of either liposome-entrapped or free drug AraC or ACV containing medium.
(§5) In the experiments where nucleoside-transport inhibitors were used, the inhibitors were added at 30 min. prior to the AraC-entrapped liposome addition. Inhibitors were present throughout the assay. For the control experiments, the infection medium was replaced with the fresh growth medium. At 6 hr. PI, 1 micro-Ci of [^3 H]dT was added in 20 micro-l for cytotoxicity assay (see below). Then incubation continued at 37° C. in a CO2 incubator. At 42 hr. PI, the growth medium was removed and immediately titered for the virus yield using the 50% tissue culture infective dose (TCID50) assay using Vero cells. The TCID50 assay was done in quadruplicates and the results were expressed in average ±S.D.
(§6) Cytotoxicity of the L929 cells was determined by 20 labeling the cells at 6 hr. PI with [3H]dT. At 42 hr. PI, the growth medium was removed and the cells were washed with cold PBS for a total of three times. Then the DNA was precipitated with 5% trichloroacetic acid (TCA) at 4° C. After two cycles of 2 hr. incubation with fresh TCA, the precipitates at the bottom of the plates were washed one more time with 200 micro-l of fresh TCA. Finally, the precipitates were redissolved and dequenched with 1N NaOH overnight. The solubilized TCA precipitates were counted for tritium radioactivity. Data presented were the average ±S.D. of the quadruplicates.

[2] = L929 cell toxicity assay ([3H]dT incorporation); settings: mouse, l929 cells
Procedure: as §1, §2, §3, §4, §5, §6

[3] = tested on: HSV; assay: Efficacy in inhibiting HSV replication in L929 cells (virus yield, TCID50 assay); type: cell-based, HSV-1, HF strain; settings: HSV-infected L929 cells; for free drug amount required for comparable antiviral activity relative to TS immunoliposome encapsulated AraC: FIG. 7B
Procedure: The HF strain of HSV-1 was propagated on Hep-2 cell. After 3 cycles of freeze and thawing of the virus infected cells, the virus released were isolated from the supernatant after palleting the cell debris at 1000 g for 10 min. These virus stock contained 1×10^8 pfu/ml and were stored in -70° C.
(§7) Inhibitors were present throughout the assay. […] At 6 hr. […] At 42 hr.

[4] = target: nucleoside transport system; settings: cited from earlier work
[5] = tested on: HSV; assay: Repression of TS immunoliposome mediated therapeutic effect by nucleoside transport inhibitors (HSV yield, TCID50 assay); type: cell-based, HSV-1, HF strain; settings: for repression of therapeutic effect of AraC-encapsulated TS immunoliposomes: Table II; for Log[HSV], with liposome: 0.1 microg/ml AraC in TS immunoliposomes
Procedure: While not wishing to be bound by theory, it is believed that the surface deposition of TS immunoliposomes was followed by transport of liposome-released drugs into the cytosol via cellular nucleoside transporters. To test this hypothesis, the effect on virus replication of two nucleoside transport inhibitors, p-nitrothiobenzylinosine, and dipyridamole were investigated.
PI was determined using the TCID50 assay described in Example 14
^b HSV infected cells were treated with or without 0.1 microg/ml
(ug/ml) of AraC encapsulated in the TS immunoliposomes.
as §7

EC50 ([3]; Human alphaherpesvirus 1, 42 hr. PI, FIG. 8, read-out: 50% effective dose (ED50), virus inhibition): 1.1 µg/mL (≈ 4.88 µM)
SMILES: Nc1nc2c(ncn2COCCO)c(=O)[nH]1 [ACV, acycloguanosine]
CD50 (drug concentration required to inhibit 50% of [3H]dT incorporation) [1]: 12.5 ng/mL
CC50 at 42 h [2]: 0.0125 µg/mL (≈ 0.0555 µM)

SMILES: OCCN(CCO)c1nc(N2CCCCC2)c2nc(N(CCO)CCO)nc(N3CCCCC3)c2n1 [Dipyridamole]
Ki ([4]; noncompetitive inhibitor): 3000 nM
repression of therapeutic effect of AraC-encapsulated TS immunoliposomes [5]: concentration dependent
Log[HSV] Diff. (with vs without liposome) ([5]; inhibitor 1.4 uM): 1.6
Log[HSV], without liposome ([5]; inhibitor 1.4 uM): 5.3 ± 0.3
Log[HSV], with liposome ([5]; inhibitor 1.4 uM): 3.7 ± 0.3
Log[HSV] Diff. (with vs without liposome) ([5]; inhibitor 11.1 uM): 1.4
Log[HSV], without liposome ([5]; inhibitor 11.1 uM): 4.8 ± 0.3
Log[HSV], with liposome ([5]; inhibitor 11.1 uM): 3.4 ± 0.4

SMILES: Nc1ccn([C@@H]2O[C@H](CO)[C@@H](O)[C@@H]2O)c(=O)n1 [AraC, cytosine-beta-D-arabinoside]
CD50 (drug concentration required to inhibit 50% of [3H]dT incorporation) [1]: 0.3 ng/mL
cytotoxicity ([1]; HSV-infected / host L929 cells): cytotoxic to infected cells
cytotoxicity to uninfected cells ([1]; uninfected control cells, [3H]dT incorporation): cytotoxic
CC50 at 42 h [2]: 0.0003 µg/mL (≈ 0.00123 µM)
inhibition of virus replication [3]: only a marginal effect on virus replication
free drug amount required for comparable antiviral activity relative to TS immunoliposome encapsulated AraC [3]: at least 1000 fold
free drug amount required for comparable antiviral activity relative to TS immunoliposome encapsulated AraC ([3]; listed as free AraC): ≥ 1000 fold

SMILES: O=[N+]([O-])c1ccc(CSc2ncnc3c2ncn3[C@@H]2O[C@H](CO)[C@@H](O)[C@H]2O)cc1 [p-Nitrothiobenzylinosine, S-(p-Nitrobenzyl)-6-thioinosine]
Ki ([4]; competitive inhibitor): 1 nM
repression of therapeutic effect of AraC-encapsulated TS immunoliposomes [5]: concentration dependent
Log[HSV] Diff. (with vs without liposome) ([5]; inhibitor 12.5 nM): 2.3
Log[HSV], without liposome ([5]; inhibitor 12.5 nM): 5.1 ± 0.9
Log[HSV], with liposome ([5]; inhibitor 12.5 nM): 2.8 ± 0.8
Log[HSV] Diff. (with vs without liposome) ([5]; inhibitor 100.0 nM): 0.8
Log[HSV], without liposome ([5]; inhibitor 100.0 nM): 4.6 ± 0.2
Log[HSV], with liposome ([5]; inhibitor 100.0 nM): 3.8 ± 0.4
